Assays:
[1] = test system: Ebola; experiment: microbe, parasite or virus in culture; format: cell-based; conditions: Zaire ebolavirus, read-out: Activity
[2] = test system: Marburg; experiment: organism not typed; format: cell-based, Musoke/Ravn; conditions: read-out: Activity
[3] = test system: Influenza A; experiment: microbe, parasite or virus in culture; format: cell-based, WSN H1N1; conditions: read-out: Activity
[4] = test system: Junín; experiment: organism not typed; format: cell-based; conditions: read-out: Activity
[5] = test system: Rift Valley Fever; experiment: organism not typed; format: cell-based; conditions: read-out: Activity
[6] = test system: LaCrosse; experiment: organism not typed; format: cell-based; conditions: read-out: Activity
[7] = test system: Nipah; experiment: organism not typed; format: cell-based, Malaysia
[8] = test system: Omsk; experiment: organism not typed; format: cell-based, Omsk Hemorrhagic Fever, Guriev; conditions: read-out: Activity
[9] = test system: RSSE; experiment: organism not typed; format: cell-based, Russian Spring Summer Encephalitis, Sofiin; conditions: read-out: Activity
[10] = test system: PIV-5; experiment: organism not typed; format: cell-based; conditions: read-out: Activity
[11] = test system: HPIV-3; experiment: microbe, parasite or virus in culture; format: cell-based; conditions: Human respirovirus 3, read-out: Activity
[12] = test system: NDV; format: cell-based, Newcastle Disease, rNDV/F3aa-GFP
[13] = test system: HIV-1; experiment: microbe, parasite or virus in culture; format: cell-based; conditions: Human immunodeficiency virus 1, read-out: Activity
[14] = test system: Murine Leukemia; experiment: cells; format: cell-based, F57; conditions: Mus musculus, read-out: Activity
[15] = test system: Yellow Fever; experiment: organism not typed; format: cell-based, Asibi; conditions: read-out: Activity
[16] = test system: Hepatitis C Virus; experiment: microbe, parasite or virus in culture; format: cell-based; conditions: read-out: Activity
[17] = test system: West Nile Virus; experiment: microbe, parasite or virus in culture; format: cell-based; conditions: read-out: Activity
[18] = test system: Vesicular; experiment: microbe, parasite or virus in culture; format: cell-based, Vesicular Stomatitis, Indiana
[19] = test system: Cowpox; experiment: organism not typed; format: cell-based, Brighton; conditions: read-out: Activity
[20] = test system: Vaccinia; experiment: microbe, parasite or virus in culture; format: cell-based, VTF1.1; conditions: Orthopoxvirus vaccinia, read-out: Activity
[21] = test system: Adenovirus; experiment: microbe, parasite or virus in culture; format: cell-based; conditions: unidentified adenovirus, read-out: Activity
[22] = test system: Coxsackie B; experiment: organism not typed; format: cell-based; conditions: read-out: Activity
[23] = test system: Reovirus; experiment: microbe, parasite or virus in culture; format: cell-based; conditions: Reovirus sp., read-out: Activity
[24] = test system: NiV-pVSV; experiment: microbe, parasite or virus in culture; format: cell-based, Nipah virus envelope pseudotyped onto VSV
[25] = test system: VSV-G pseudotyped VSV; format: cell-based, Vesicular Stomatitis virus
[26] = test system: VSV transcription; format: biochemical, VSV-Indiana
[27] = test system: live VSV and NiV-pVSV; format: cell-based
[28] = test system: Vero cells infected with pVSV; format: cell-based
[29] = test system: pVSV; format: cell-based
[30] = test system: Vero cells; format: cell-based
[31] = test system: NiV-pVSV; format: cell-based
[32] = test system: pVSV particles
[33] = test system: RVFV MP-12; format: cell-based, Rift Valley fever virus
[34] = test system: NiV-pseudotyped pVSV binding to ephrinB2; format: cell-based
[35] = test system: NiV VLPs; format: cell-based, Nipah virus
[36] = test system: NiV envelope mediated cell-cell fusion; format: cell-based
[37] = test system: HIV-1 (JRCSF); format: cell-based
[38] = test system: Vero cells
[39] = test system: Vero cells; remark: listed apart in the source
[40] = mouse, in vivo
[41] = male, Sprague-Dawley, rat, in vivo
[42] = in vivo; conditions: male, Sprague-Dawley, rat, ip

C=CCN1C(=O)/C(=C/c2ccc(-c3ccccc3)o2)SC1=S [LJ-001, (Z)-3-Allyl-5-(5-phenyl-2-furyl)methylene-4-oxothiazolidine-2-thione]
IC50 [1]: 0.5 to 1 µM | IC50 [2]: 0.5 to 1 µM | IC50 [3]: < 0.5 µM | IC50 [4]: 0.5 to 1 µM | IC50 [5]: < 0.5 µM | IC50 [6]: < 0.5 µM | infection and infectious spread of live NiV [7]: inhibit infection and infectious spread | IC50 ([7]; read-out: Activity): 0.5 to 1 µM | IC50 [8]: 0.5 to 1 µM | IC50 [9]: 0.5 to 1 µM | IC50 [10]: 0.5 to 1 µM | IC50 [11]: 0.5 to 1 µM | IC50 [12]: 0.5 to 1 µM | IC50 [13]: 0.5 to 1 µM | IC50 [14]: 0.5 to 1 µM | IC50 [15]: < 0.5 µM | IC50 [16]: < 0.5 µM | IC50 [17]: < 0.5 µM | infection and infectious spread of live VSV [18]: inhibit infection and infectious spread | IC50 ([18]; Vesicular stomatitis virus, read-out: Activity): 0.5 to 1 µM | IC50 [19]: 1 to 5 µM | IC50 [20]: 0.5 to 1 µM | IC50 [21]: > 10 µM | IC50 [22]: > 10 µM | IC50 [23]: > 10 µM | effect of pre-treatment temperature and duration on antiviral activity [24]: no significant effect | reporter virus entry via Nipah virus envelope (NiV-F/G) [24]: inhibited reporter virus entry | IC50 ([24]; Vesicular stomatitis virus, Vero, read-out: in vitro IC50 concentrations): ~1 µM | reporter virus entry via Vesicular Stomatitis virus envelope proteins (VSV-G) [25]: inhibited reporter virus entry | viral transcription, mRNA production, and mRNA capping of VSV [26]: unaffected | infectivity of treated virus after 4 h PBS wash and secondary repurification [27]: remained non-infectious | infectivity of treated virus after washing and repurification [27]: non-infectious | inhibitory effect after washing pre-treated target cells [28]: Washing the cells reversed the inhibitory effect | inhibitory effect versus time of addition [29]: apparent only when the compound was added before or during, but not after, the viral infection period | intercalation into cellular membranes [30]: dose-dependent increase in fluorescence | effect of compound pre-incubated with saturating liposomes on viral infection [31]: no effect on viral infection | effect of excess liposomes, virus pre-exposed to compound [31]: no longer able to rescue viral infection | effect of liposome size on binding or reversal of inhibition [31]: no effect | effect of liposomes, virus and liposomes simultaneously subjected to compound [31]: competed off virus infection | virion membrane morphology by EM [32]: significant distortion of the viral membrane | infectivity of gradient fractions [33]: completely non-infectious | reduction in infectivity [33]: ≥ 5 log | virus-cell binding [34]: still bound cognate cell surface receptors | cytoplasmic delivery of beta-lactamase matrix fusion protein [35]: inhibited cytoplasmic delivery | NiV envelope mediated cell-cell fusion [36]: did not inhibit | sensitivity of passaged virus to compound [37]: no evidence of decreased sensitivity | toxic effects in AK and LD enzyme release assays [38]: little to no toxic effects | active cell metabolism (Alamar Blue uptake) [39]: no effect on active cell metabolism | complete blood counts with differential [40]: no difference relative to the vehicle control group | hematocrit and hemoglobin levels [40]: normal | liver function tests, kidney function tests, serum electrolytes [40]: all normal and equivalent to the vehicle control mice | serum cholesterol levels [40]: statistically significant elevation | serum metabolites (glucose, phosphate, triglycerides) [40]: normal | weight loss [40]: < 10% | peak serum concentration, 20 mg/kg group versus 50 mg/kg group [41]: higher peak serum concentration than the 50 mg/kg group | time until serum levels approach in vitro IC50 concentrations ([41]; ip): about 2 hours | half-life [42]: ~4 h

Reference: patent publication US20120219613A1 (priority 2009, published 2012)
